Test results as given in the supplement of paper PMC10307832.

What was measured:
Experiment in all cases: relative viability (nuclei count vs DMSO), 5 days (fraction); higher = more cells survive
GSK-J4 + OSI-027 = compound: CCOC(=O)CCNc1cc(N2CCc3ccccc3CC2)nc(-c2ccccn2)n1 [GSK-J4] + COc1cccc2cc(-c3nc([C@H]4CC[C@H](C(=O)O)CC4)n4ncnc(N)c34)[nH]c12 [OSI-027] (partner 0.5 µM)
Method in brief: (§1)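 Lung cancer cell lines were pin-tool dosed in 1536-well plates on the day after seeding, with either a lone drug or a fixed anchor-drug dose plus five library-drug doses (not always all listed) in √10 steps. Nuclei were counted on 4× images after 5 days. Relative viability is the ratio of treated-well to vehicle-well nuclei counts, with each value a median of duplicate plates.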

AZ3146 + Lapatinib = compound: CN1CCC(CC1)OC2=CC(=C(C=C2)NC3=NC=C4C(=N3)N(C(=O)N4C)C5CCCC5)OC [AZ3146] + CS(=O)(=O)CCNCc1ccc(-c2ccc3ncnc(Nc4ccc(OCc5cccc(F)c5)c(Cl)c4)c3c2)o1 [Lapatinib] (partner 2 µM)
Method in brief: as §1

AZ3146 + Dasatinib = compound: CN1CCC(CC1)OC2=CC(=C(C=C2)NC3=NC=C4C(=N3)N(C(=O)N4C)C5CCCC5)OC [AZ3146] + Cc1nc(Nc2ncc(C(=O)Nc3c(C)cccc3Cl)s2)cc(N2CCN(CCO)CC2)n1 [Dasatinib] (partner 0.075 µM)
Method in brief: as §1

GSK-J4 + Pictilisib = compound: CCOC(=O)CCNc1cc(N2CCc3ccccc3CC2)nc(-c2ccccn2)n1 [GSK-J4] + CS(=O)(=O)N1CCN(Cc2cc3nc(-c4cccc5[nH]ncc45)nc(N4CCOCC4)c3s2)CC1 [Pictilisib] (partner 1 µM)
Method in brief: as §1

Cell Line	relative viability (GSK-J4 + OSI-027; first compound 0.5 µM)	relative viability (GSK-J4 + OSI-027; first compound 1.581 µM)	relative viability (GSK-J4 + OSI-027; first compound 5 µM)	relative viability (GSK-J4 + OSI-027; first compound 15.81 µM)	relative viability (GSK-J4 + OSI-027; first compound 50 µM)	relative viability (AZ3146 + Lapatinib; first compound 0.08 µM)	relative viability (AZ3146 + Lapatinib; first compound 0.253 µM)	relative viability (AZ3146 + Lapatinib; first compound 0.8 µM)	relative viability (AZ3146 + Lapatinib; first compound 2.53 µM)	relative viability (AZ3146 + Lapatinib; first compound 8 µM)	relative viability (AZ3146 + Dasatinib; first compound 0.08 µM)	relative viability (AZ3146 + Dasatinib; first compound 0.253 µM)	relative viability (AZ3146 + Dasatinib; first compound 0.8 µM)	relative viability (AZ3146 + Dasatinib; first compound 2.53 µM)	relative viability (AZ3146 + Dasatinib; first compound 8 µM)	relative viability (GSK-J4 + Pictilisib; first compound 0.5 µM)	relative viability (GSK-J4 + Pictilisib; first compound 1.581 µM)	relative viability (GSK-J4 + Pictilisib; first compound 5 µM)	relative viability (GSK-J4 + Pictilisib; first compound 15.81 µM)	relative viability (GSK-J4 + Pictilisib; first compound 50 µM)
NCI-H1437	0.899	0.761	0.806	0.882	0.648	0.708	0.739	0.829	0.899	0.519	0.327	0.373	0.447	0.368	0.51	0.454	0.352	0.385	0.435	0.165
EKVX	0.673	0.412	0.619	0.6	0.567	0.172	0.222	0.225	0.24	0.2	0.434	0.572	0.5	0.565	0.535	0.343	0.536	0.619	0.424	0.397
NCI-H3122	0.88	–	1.1	0.537	0.674	1.09	1.04	0.952	1	1.02	0.878	0.816	0.859	0.817	0.752	0.547	0.63	0.785	0.557	0.382
NCI-H2023	0.409	–	0.403	0.321	0.194	0.688	0.922	0.735	0.941	0.179	0.57	0.584	0.472	0.498	0.147	0.303	0.182	0.332	0.264	0.132
NCI-H460	0.586	0.494	0.537	0.508	0.522	0.877	1.11	0.937	0.817	0.656	0.463	0.485	0.484	0.463	0.476	0.43	0.457	0.519	0.343	0.217
PC-3 [JPC-3]	0.71	0.65	0.737	0.585	0.732	0.368	0.459	0.419	0.47	0.444	0.86	0.92	0.991	1.12	1.05	0.644	0.647	0.757	0.742	0.671
HCC-15	0.722	–	0.634	0.469	0.285	0.873	0.819	0.896	0.857	0.832	0.727	0.64	0.597	0.557	0.491	0.743	0.353	0.784	0.666	0.473
NCI-H2228	0.593	0.544	0.616	0.415	0.459	1.08	1.13	1.21	1.23	0.889	0.466	0.562	0.579	0.511	0.483	0.337	0.304	0.539	0.389	0.47
NCI-H1650	0.732	0.365	0.673	0.606	0.553	0.649	1.12	0.562	0.97	0.581	0.318	0.315	0.37	0.265	0.225	0.644	0.258	0.622	0.533	0.291
NCI-H1975	0.692	0.677	0.46	0.675	0.681	0.922	0.95	0.928	0.933	0.783	0.358	0.338	0.346	0.321	0.198	0.279	0.31	–	0.344	0.402
NCI-H727	0.745	0.383	0.842	0.55	0.322	0.745	0.557	0.79	1.29	0.869	0.418	0.378	0.324	0.362	0.384	0.379	–	0.691	0.427	0.18
COR-L23	0.753	0.603	–	0.733	0.625	1	1.02	0.871	0.923	0.899	0.425	0.527	0.509	0.457	0.313	0.731	0.532	–	0.606	0.566
LK-2	0.268	0.193	0.204	0.152	0.19	0.754	0.961	0.914	1.01	0.841	0.376	0.218	0.279	0.25	0.322	0.573	0.531	0.736	0.456	0.443
201T	0.668	0.414	0.932	0.691	0.721	1.03	1.06	1	1.06	1.06	0.548	0.59	0.511	0.609	0.625	0.653	0.791	0.726	0.687	0.598
HCC-827	0.751	0.635	0.792	0.576	0.787	0.155	0.191	0.175	0.237	0.191	0.381	0.345	0.409	0.333	0.218	0.945	1.13	1.14	0.949	1.03
NCI-H650	0.508	0.447	0.356	0.427	0.294	0.804	0.844	0.667	1.02	0.973	0.351	0.428	0.435	0.482	0.491	0.839	0.798	0.789	0.779	0.468
